In ChEMBL document CHEMBL1932970, “Facile synthesis of 1,2,3-triazole analogs of SGLT2 inhibitors by 'click chemistry'” (Bioorg Med Chem Lett, 2012):
The source made the active and inactive calls. The calls are words filed in the database; no cut-off is given here.

Tested on: Rattus norvegicus
Test: Antidiabetic activity in fasted Sprague-Dawley rat assessed as increase in urinary glucose excretion at 30 mg/kg, po administered 0.5 hrs before glucose challenge measured after 24 hrs by UV spectrophotometric analysis relative to control
Type: functional, organism-based
Parameters: dose 30 mg/kg
Conditions: Urine

| SMILES | Activity |
| --- | --- |
| OC[C@H]1O[C@@H](Cc2cn(Cc3ccccc3)nn2)[C@H](O)[C@@H](O)[C@@H]1O | Active |
| O=[N+]([O-])c1ccc(Cn2cc(C[C@@H]3O[C@H](CO)[C@@H](O)[C@H](O)[C@H]3O)nn2)cc1 | Active |
| OC[C@H]1O[C@@H](Cc2cn(Cc3nc4ccccc4s3)nn2)[C@H](O)[C@@H](O)[C@@H]1O | Active |
| OC[C@H]1O[C@@H](Cc2cn(Cc3ccccc3Cl)nn2)[C@H](O)[C@@H](O)[C@@H]1O | Active |
| Cc1ccc(Cn2cc(C[C@@H]3O[C@H](CO)[C@@H](O)[C@H](O)[C@H]3O)nn2)cc1 | Active |
| OC[C@H]1O[C@@H](Cc2cn(Cc3cc4ccc(Cl)cc4s3)nn2)[C@H](O)[C@@H](O)[C@@H]1O | Active |
| OC[C@H]1O[C@@H](Cc2cn(Cc3ccc(-c4ccc(F)cc4)s3)nn2)[C@H](O)[C@@H](O)[C@@H]1O | Active |
| CCOc1ccc(Cc2cc([C@@H]3O[C@H](CO)[C@@H](O)[C@H](O)[C@H]3O)ccc2Cl)cc1 | Active |
